What is called IC50 is the concentration that inhibits the measured activity by half.

The target of assay [1] is T1, adenosine A2A receptor (Homo sapiens (Human), UniProt P29274). Put plainly: Radioligand binding competition assay, adenosine A2A receptor. The settings on record: 3000 nM compound; for inhibition at 3 µM: read-out: A2a binding % inh @ 3000 nM. As for the experimental part: Binding of selected compounds to the adenosine A1, A2A, A2B, and A3 receptors was tested using a binding competition assay.
The general protocol for the radioligand binding competition assay was as follows. Competition binding was performed in duplicate in the wells of a 96 well plate (Master Block, Greiner, 786201) containing binding buffer (optimized for each receptor), membrane extracts (amount of protein/well optimized for each receptor), radiotracer (final concentration optimized for each receptor), and test compound. Nonspecific binding was determined by co-incubation with 200-fold excess of cold competitor. The samples were incubated in a final volume of 0.1 mL at 25° C. for 60 minutes and then filtered over filter plates. Filters were washed six times with 0.5 mL of ice-cold washing buffer (optimized for each receptor) and 50 μL of Microscint 20 (Packard) were added on each filter. The filter plates were sealed, incubated 15 min on an orbital shaker and scintillation counted with a TopCount for 30 sec/filter.
For the adenosine A2A receptor radioligand binding assay, the following modifications were made to the general protocol. GF/C filters (Perkin Elmer, 6005174), presoaked in 0.01% Brij for 2 h at room temperature were used. Filters were washed six times with 0.5 mL of ice-cold washing buffer (50 mM Tris pH 7.4) and 50 μL of Microscint 20 (Packard) was added in each well. The plates were then incubated for 15 min on an orbital shaker and then counted with a TopCount™ for 1 min/well.
Another radioligand binding assay was used to evaluate the binding affinity for the adenosine A2A receptor assay was performed in duplicate in the wells of a 384 plate. Assay buffer contained DPBS 500 mM, MgCl2 0.1 mM, and 1% DMSO. Membrane-bead suspension was prepared by mixing 25.98 μL of human adenosine A2A membrane preparation (Perkin Elmer, RBHA2AM400UA) at 33.4 pg/mL, 28 μL of ADA at 20 pg/mL, and 932 μL of SPA beads at 3.33 mg/mL) and incubated the mixture for 20 min at room temperature. Mixed 20 μL of radiotracer (^3H-SCH 58261) at 15 nM to each well containing test articles at various concentrations and centrifuge the plate at 1000 rpm for 1 minute. Added 30 μL of the membrane-bead suspension to each well. Sealed the plates and incubated for 1 hr at room temperature with vigorous mixing on a plate mixer. Plates were read on Microbeta^2 (Perkin Elmer, 2450-0010).
CHO-K1-A3 cell membranes, 1.5 μg/well; a binding buffer comprising HEPES 25 mM pH 7.4, MgCl2 5 mM, CaCl2 1 mM, 0.5% BSA; a wash buffer comprising HEPES 25 mM pH 7.4, MgCl2 5 mM, CaCl2 1 mM; a Unifilter GF/C—treated for 2 h with 0.5% BS; and 0.4 nM of ^125I-AB-MECA as the tracer. The results of the binding assay are shown in Table B1-1 and are shown as percent residual binding at a given concentration. Percent of residual binding means binding of a compound in the presence of competitor normalized to the amount of binding in the absence of competitor. […] For example, compound 1 strongly bound to A2A (30% residual binding at a concentration of 100 nM), A1 (−3% residual binding at 300 nM) and A2B, (−9% residual binding at 300 nM) but weakly bound to A3 (96% residual binding at 300 nM).

Assay [2] deals with T1, adenosine A2A receptor. Put plainly: cAMP assay in HEK-293 cells expressing human recombinant adenosine A2A receptor. In kind it is cell-based. As to conditions: for inhibition at 0.1 µM / inhibition at 0.3 µM: HEK293; for inhibition at 0.1 µM: 100 nM compound, read-out: A2a cAMP % inh @ 100 nM; for inhibition at 0.3 µM: 300 nM compound, read-out: A2a cAMP % inh @ 300 nM. Here is the method: The functional activity of compounds was tested using one of the two assays to detect the present of cAMP. Activation of G-protein coupled receptors (such as A2A) results in activation of adenylcyclase which converts ATP into cAMP which is used as a downstream signaling molecule. Therefore, molecules which act as GPCR (or specifically A2A receptor) antagonists cause a decrease in intracellular cAMP concentration.
Both assays used HEK-293 cells expressing human recombinant adenosine A2A receptor were grown prior to the test in media without antibiotic. Assay 1: The cells were detached by gentle flushing with PBS-EDTA (5 mM EDTA), recovered by centrifugation and suspended in assay buffer (KRH: 5 mM KCl, 1.25 mM MgSO4, 124 mM NaCl, 25 mM HEPES, 13.3 mM Glucose, 1.25 mM KH2PO4, 1.45 mM CaCl2, 0.5 g/L BSA, supplemented with Rolipram).
12 μL of cells were mixed with 6 μL of the test compound at increasing concentrations and then incubated for 10 min. Thereafter 6 μL of the reference agonist was added at a final concentration corresponding to the historical EC80. The plates were then incubated for 30 min at room temperature. After addition of the lysis buffer and 1 hour incubation, cAMP concentrations were estimated, according to the manufacturer specification, with the HTRF® kit.
Assay 2: 100 nL of test articles at 100× of final concentration were transferred to assay plate by Echo. Cells were washed twice with 5 mL of PBS […]. After aspirating the PBS and adding 1.5 mL versine, cells were incubated at 37° C. for 2-5 min. After centrifugation, 4 mL of medium was added and adjusted cell density to 5,000 cells/well with stimulation buffer. 10 μL of cells were aliquoted to the assay plate, centrifuged at 1000 rpm for 1 minute, and incubated for 60 minutes at room temperature. 5 μL 4× Eu-cAMP tracer solution and 5 μL 4× Ulight™-anti-cAMP solution were added to assay plate, followed by centrifugation and 60-minute incubation at room temperature. Plates were read on EnVision.
Background: Changes in cAMP serve as a functional read-out for many G protein-coupled receptors.

T1 sequence (P29274 whole entry): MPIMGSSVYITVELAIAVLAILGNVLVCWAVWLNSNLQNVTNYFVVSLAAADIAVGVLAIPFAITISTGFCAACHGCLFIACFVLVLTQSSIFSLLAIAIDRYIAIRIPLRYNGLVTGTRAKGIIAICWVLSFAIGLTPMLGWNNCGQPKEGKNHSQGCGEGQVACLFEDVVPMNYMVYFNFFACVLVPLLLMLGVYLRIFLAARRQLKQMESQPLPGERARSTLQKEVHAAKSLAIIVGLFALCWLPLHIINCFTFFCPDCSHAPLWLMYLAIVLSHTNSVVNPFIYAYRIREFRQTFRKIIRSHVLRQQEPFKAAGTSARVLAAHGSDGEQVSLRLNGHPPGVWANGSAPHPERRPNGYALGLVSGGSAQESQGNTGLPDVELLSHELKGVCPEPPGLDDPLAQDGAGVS

For `O=c1cc[nH]c2nc(-c3ccccc3)c(-c3ccc4ccccc4c3)cc12` [Compound No. 1.16, 6-(naphthalen-2-yl)-7-phenyl-1,8-naphthyridin-4(1H)-one], the “A2A radioligand binding competition assay % residual binding @ 3000 nM” value in assay [1] is on record as 76/ND/ND/ND %. Besides, the inhibition at 0.1 µM in assay [2] came out at 23%.
Turning to `Cc1cc(Cl)cc(-c2cc3ccc(=O)[nH]c3nc2-c2ccccc2)c1` [Compound No. 1.35, 6-(3-chloro-5-methylphenyl)-7-phenyl-1,8-naphthyridin-2(1H)-one], the inhibition at 3 µM in assay [1] was determined as 0%. In addition, the inhibition at 0.3 µM in assay [2] turned out to be 12%.
As for `O=c1cc[nH]c2nc(-c3ccccc3)c(-c3cnc4ncccc4c3)cc12` [Compound No. 1.11, 2-phenyl-[3,3′-bi(1,8-naphthyridin)]-5(8H)-one], the “A2A radioligand binding competition assay % residual binding @ 3000 nM” value in assay [1] is recorded as 51/ND/ND/ND %. Moreover, the inhibition at 0.1 µM in assay [2] came to 49%.
Regarding `O=c1cc[nH]c2nc(-c3ccccc3)c(-c3ccc4ncsc4c3)cc12` [Compound No. 1.24, 6-(benzo[d]thiazol-6-yl)-7-phenyl-1,8-naphthyridin-4(1H)-one], the “A2A radioligand binding competition assay % residual binding @ 3000 nM” value in assay [1] was 16/ND/ND/ND %. For the same molecule, the inhibition at 0.1 µM in assay [2] worked out at 83%.
For the molecule `O=c1cc[nH]c2nc(-c3ccccc3)c(-c3ccc4cnccc4c3)cc12` [Compound No. 1.9, 6-(isoquinolin-6-yl)-7-phenyl-1,8-naphthyridin-4(1H)-one], the “A2A radioligand binding competition assay % residual binding @ 3000 nM” value in assay [1] is 70/ND/ND/ND %. The inhibition at 0.1 µM in assay [2] amounted to 30%.
Regarding `O=c1cc[nH]c2nc(-c3ccccc3)c(-c3cc(Cl)c4ncccc4c3)cc12` [Compound No. 1.13, 6-(8-chloroquinolin-6-yl)-7-phenyl-1,8-naphthyridin-4(1H)-one], the “A2A radioligand binding competition assay % residual binding @ 3000 nM” value in assay [1] is on record as 29/ND/ND/ND %. For the same molecule, the IC50 in assay [2] (first cAMP table) stood at 47.7 nM.
As for `O=c1ccc2cc(-c3ccc4nccnc4c3)c(-c3ccccc3)nc2[nH]1` [Compound No. 1.10, 7-phenyl-6-(quinoxalin-6-yl)-1,8-naphthyridin-2(1H)-one], the “A2A radioligand binding competition assay % residual binding @ 3000 nM” value in assay [1] is reported as 60/ND/ND/ND %. In addition, in assay [2], the inhibition at 0.1 µM was determined as 40%.
Take `Cn1cnc2cc(-c3cc4c(=O)cc[nH]c4nc3-c3ccccc3)ccc21` [Compound No. 1.22, 6-(1-methyl-1H-benzo[d]imidazol-5-yl)-7-phenyl-1,8-naphthyridin-4(1H)-one]: the “A2A radioligand binding competition assay % residual binding @ 3000 nM” value in assay [1] was 69/ND/ND/ND %. Further, the inhibition at 0.1 µM in assay [2] was 30%.
For `O=c1cc[nH]c2nc(-c3ccccc3)c(-c3cc(Cl)c4[nH]cnc4c3)cc12` [Compound No. 1.17, 6-(7-chloro-1H-benzo[d]imidazol-5-yl)-7-phenyl-1,8-naphthyridin-4(1H)-one], in that order: 14/ND/ND/ND % and 85%.
In the case of `Cc1ccc(-c2nc3[nH]ccc(=O)c3cc2-c2ccc3ncccc3c2)o1` [Compound No. 1.25, 7-(5-methylfuran-2-yl)-6-(quinolin-6-yl)-1,8-naphthyridin-4(1H)-one], in assay [1], the “A2A radioligand binding competition assay % residual binding @ 3000 nM” value is reported as 0/ND/ND/ND %. Moreover, the IC50 in assay [2] (first cAMP table) is 18.8 nM.
As for `O=c1ccc2cc(-c3ccncc3)c(-c3ccccc3)nc2[nH]1` [Compound No. 1.34, 7-phenyl-6-(pyridin-4-yl)-1,8-naphthyridin-2(1H)-one], the inhibition at 3 µM in assay [1] turned out to be 30%. For the same molecule, in assay [2], the inhibition at 0.3 µM came out at 26%.
For `O=c1cc[nH]c2nc(-n3cccn3)c(-c3ccc4ncccc4c3)cc12` [Compound No. 1.100, 7-(1H-pyrazol-1-yl)-6-(quinolin-6-yl)-1,8-naphthyridin-4(1H)-one], the inhibition at 3 µM in assay [1] was found to be 78%. In addition, the 50% inhibitory concentration (IC50) in assay [2] (second cAMP table) came out at 3220 nM.
Regarding `Cc1ccc(-c2nc3[nH]ccc(=O)c3cc2-c2ccc3ncsc3c2)o1` [Compound No. 1.98, 6-(benzo[d]thiazol-6-yl)-7-(5-methylfuran-2-yl)-1,8-naphthyridin-4(1H)-one], in assay [1], the inhibition at 3 µM was found to be 85%. For the same molecule, the IC50 in assay [2] (second cAMP table) worked out at 17.2 nM.
As for `O=c1ccc2cc(-c3cc(Cl)c4ncccc4c3)c(-c3ccccc3)nc2[nH]1` [Compound No. 1.12, 6-(8-chloroquinolin-6-yl)-7-phenyl-1,8-naphthyridin-2 (1H)-one], the “A2A radioligand binding competition assay % residual binding @ 3000 nM” value in assay [1] is 14/ND/ND/ND %. Besides, the inhibition at 0.1 µM in assay [2] turned out to be 100%.
For `O=c1ccc2cc(-c3ccc4[nH]cnc4c3)c(-c3ccccc3)nc2[nH]1` [Compound No. 1.6, 6-(1H-benzo[d]imidazol-5-yl)-7-phenyl-1,8-naphthyridin-2(1H)-one], in that order: 57/ND/ND/ND % and 43%.
`O=c1cc[nH]c2nc(-c3ccccc3)c(-c3ccc4ncncc4c3)cc12` [Compound No. 1.101]: the inhibition at 3 µM in assay [1] is 72%. For the same molecule, in assay [2] (second cAMP table), the IC50 was 182 nM.
Take `Cc1cc(-c2cc3c(=O)cc[nH]c3nc2-c2ccccc2)cc2cccnc12` [Compound No. 1.23, 6-(8-methylquinolin-6-yl)-7-phenyl-1,8-naphthyridin-4(1H)-one]: in assay [1], the “A2A radioligand binding competition assay % residual binding @ 3000 nM” value was 22/ND/ND/ND %. For the same molecule, the inhibition at 0.1 µM in assay [2] stood at 77%.
As for `Cc1cc(-c2cc3c(=O)cc[nH]c3nc2-c2ccccc2)cc(C)n1` [1.3, 6-(2,6-dimethylpyridin-4-yl)-7-phenyl-1,8-naphthyridin-4(1H)-one], the “A2A radioligand binding competition assay % residual binding @ 3000 nM” value in assay [1] is given as 50/ND/ND/ND %. In addition, the inhibition at 0.1 µM in assay [2] turned out to be 50%.
For the molecule `O=c1cc[nH]c2nc(-c3ccccc3)c(-c3ccc4[nH]ncc4c3)cc12` [Compound No. 1.102, 6-(3a,7a-dihydro-1H-indazol-5-yl)-7-phenyl-1,8-naphthyridin-4(1H)-one], the inhibition at 3 µM in assay [1] is 77%. Besides, the IC50 in assay [2] (second cAMP table) came to 292 nM.
Turning to `Cn1ccc(=O)c2cc(-c3ccc4ncccc4c3)c(-c3ccccc3)nc21` [Compound No. 1.8, 1-methyl-7-phenyl-6-(quinolin-6-yl)-1,8-naphthyridin-4(1H)-one], in assay [1], the “A2A radioligand binding competition assay % residual binding @ 3000 nM” value is recorded as 106/ND/ND/ND %. Further, the inhibition at 0.1 µM in assay [2] was 0%.
